Data taken from publication PMC5814754, “Quantitative, Wide-Spectrum Kinase Profiling in Live Cells for Assessing the Effect of Cellular ATP on Target Engagement” (Cell Chemical Biology, 2018).

Assays:
Assay in all cases: NanoBRET single-dose fractional occupancy profiling of kinase/Nluc library in live HEK293 cells (Table S1)
Assay type in all cases: binding
Design in all cases: Occupancy, % Replicate 1 / Occupancy, % Replicate 2: unit of the concentration uncertain
178 full-length kinases [1] = target: 178 full-length kinases (Homo sapiens, UniProt O75460); conditions: ERN1, Nluc C, probe 5 at 1 (unit uncertain)
178 full-length kinases [2] = target: 178 full-length kinases (Homo sapiens, UniProt O75676); conditions: RPS6KA4 (NP_001287731), Nluc orientation N, probe 5 at 0.1 (unit uncertain); replicate 1
178 full-length kinases [3] = target: 178 full-length kinases (Homo sapiens, UniProt O95835); conditions: LATS1, Nluc C, probe 5 at 0.5 (unit uncertain)
178 full-length kinases [4] = target: 178 full-length kinases (Homo sapiens, UniProt O96013); conditions: PAK4, Nluc C, probe 5 at 1 (unit uncertain)
178 full-length kinases [5] = target: 178 full-length kinases (Homo sapiens, UniProt P09769); conditions: FGR, Nluc N, probe 6 at 0.5 (unit uncertain)
178 full-length kinases [6] = target: 178 full-length kinases (Homo sapiens, UniProt P10721); conditions: KIT, Nluc C, probe 6 at 0.1 (unit uncertain)
178 full-length kinases [7] = target: 178 full-length kinases (Homo sapiens, UniProt P11309); conditions: PIM1, Nluc C, probe 5 at 1 (unit uncertain)
178 full-length kinases [8] = target: 178 full-length kinases (Homo sapiens, UniProt P31749); conditions: AKT1, Nluc C, probe 5 at 1 (unit uncertain)
178 full-length kinases [9] = target: 178 full-length kinases (Homo sapiens, UniProt P31751); conditions: AKT2, Nluc C, probe 5 at 1 (unit uncertain)
178 full-length kinases [10] = target: 178 full-length kinases (Homo sapiens, UniProt P50750); conditions: CDK9, Nluc N, probe 1 at 0.5 (unit uncertain)
178 full-length kinases [11] = target: 178 full-length kinases (Homo sapiens, UniProt P78368); conditions: CSNK1G2, Nluc N, probe 5 at 1 (unit uncertain)
178 full-length kinases [12] = target: 178 full-length kinases (Homo sapiens, UniProt Q13705); conditions: ACVR2B, Nluc C, probe 2 at 1 (unit uncertain)
178 full-length kinases [13] = target: 178 full-length kinases (Homo sapiens, UniProt Q13882); conditions: PTK6, Nluc C, probe 6 at 0.5 (unit uncertain)
178 full-length kinases [14] = target: 178 full-length kinases (Homo sapiens, UniProt Q14680); conditions: MELK, Nluc N, probe 5 at 1 (unit uncertain)
178 full-length kinases [15] = target: 178 full-length kinases (Homo sapiens, UniProt Q15831); conditions: STK11 (NP_000446), Nluc orientation N, probe 5 at 1 (unit uncertain)
178 full-length kinases [16] = target: 178 full-length kinases (Homo sapiens, UniProt Q7KZI7); conditions: MARK2, Nluc N, probe 5 at 1 (unit uncertain)
178 full-length kinases [17] = target: 178 full-length kinases (Homo sapiens, UniProt Q8WU08); conditions: STK32A (NP_001106195), Nluc orientation N, probe 5 at 1 (unit uncertain); replicate 2
178 full-length kinases [18] = target: 178 full-length kinases (Homo sapiens, UniProt Q99640); conditions: PKMYT1, Nluc C, probe 2 at 1 (unit uncertain)
178 full-length kinases [19] = target: 178 full-length kinases (Homo sapiens, UniProt Q9NYY3); conditions: PLK2, Nluc N, probe 5 at 1 (unit uncertain)
Chain of 178 full-length kinases (Homo sapiens, UniProt Q9NYY3) (Q9NYY3 whole entry): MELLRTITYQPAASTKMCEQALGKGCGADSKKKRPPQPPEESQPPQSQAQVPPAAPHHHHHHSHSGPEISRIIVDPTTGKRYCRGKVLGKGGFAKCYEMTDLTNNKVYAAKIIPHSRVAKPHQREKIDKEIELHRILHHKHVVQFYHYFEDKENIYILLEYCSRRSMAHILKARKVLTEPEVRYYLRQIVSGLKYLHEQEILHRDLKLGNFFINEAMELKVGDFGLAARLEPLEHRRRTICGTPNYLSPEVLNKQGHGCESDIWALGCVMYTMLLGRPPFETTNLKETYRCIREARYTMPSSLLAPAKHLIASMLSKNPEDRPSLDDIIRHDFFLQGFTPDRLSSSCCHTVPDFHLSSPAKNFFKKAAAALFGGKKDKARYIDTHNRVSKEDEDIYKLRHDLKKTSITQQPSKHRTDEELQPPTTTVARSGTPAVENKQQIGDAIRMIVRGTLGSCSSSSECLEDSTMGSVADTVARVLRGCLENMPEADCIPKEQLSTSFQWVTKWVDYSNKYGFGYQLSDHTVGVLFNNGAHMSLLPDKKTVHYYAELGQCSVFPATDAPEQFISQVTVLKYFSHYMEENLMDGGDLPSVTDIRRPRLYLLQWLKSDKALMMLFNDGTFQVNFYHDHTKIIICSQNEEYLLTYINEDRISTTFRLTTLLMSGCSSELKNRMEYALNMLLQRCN

Chain of 178 full-length kinases (Homo sapiens, UniProt P31751) (P31751 whole entry): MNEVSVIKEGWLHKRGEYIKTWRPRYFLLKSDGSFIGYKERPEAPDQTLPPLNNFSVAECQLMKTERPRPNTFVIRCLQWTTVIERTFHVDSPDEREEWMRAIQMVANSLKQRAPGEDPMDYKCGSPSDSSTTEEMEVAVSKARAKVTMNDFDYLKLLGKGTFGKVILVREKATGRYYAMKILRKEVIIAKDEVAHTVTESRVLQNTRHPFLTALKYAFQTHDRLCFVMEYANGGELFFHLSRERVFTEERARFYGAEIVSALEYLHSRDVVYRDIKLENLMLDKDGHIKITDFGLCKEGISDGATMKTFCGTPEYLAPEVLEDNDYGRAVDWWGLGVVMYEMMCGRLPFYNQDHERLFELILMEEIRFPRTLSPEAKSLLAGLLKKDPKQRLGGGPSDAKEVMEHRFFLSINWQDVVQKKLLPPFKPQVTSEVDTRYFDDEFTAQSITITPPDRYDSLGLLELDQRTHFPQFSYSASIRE
Chain of 178 full-length kinases (Homo sapiens, UniProt P10721) (P10721 26-976): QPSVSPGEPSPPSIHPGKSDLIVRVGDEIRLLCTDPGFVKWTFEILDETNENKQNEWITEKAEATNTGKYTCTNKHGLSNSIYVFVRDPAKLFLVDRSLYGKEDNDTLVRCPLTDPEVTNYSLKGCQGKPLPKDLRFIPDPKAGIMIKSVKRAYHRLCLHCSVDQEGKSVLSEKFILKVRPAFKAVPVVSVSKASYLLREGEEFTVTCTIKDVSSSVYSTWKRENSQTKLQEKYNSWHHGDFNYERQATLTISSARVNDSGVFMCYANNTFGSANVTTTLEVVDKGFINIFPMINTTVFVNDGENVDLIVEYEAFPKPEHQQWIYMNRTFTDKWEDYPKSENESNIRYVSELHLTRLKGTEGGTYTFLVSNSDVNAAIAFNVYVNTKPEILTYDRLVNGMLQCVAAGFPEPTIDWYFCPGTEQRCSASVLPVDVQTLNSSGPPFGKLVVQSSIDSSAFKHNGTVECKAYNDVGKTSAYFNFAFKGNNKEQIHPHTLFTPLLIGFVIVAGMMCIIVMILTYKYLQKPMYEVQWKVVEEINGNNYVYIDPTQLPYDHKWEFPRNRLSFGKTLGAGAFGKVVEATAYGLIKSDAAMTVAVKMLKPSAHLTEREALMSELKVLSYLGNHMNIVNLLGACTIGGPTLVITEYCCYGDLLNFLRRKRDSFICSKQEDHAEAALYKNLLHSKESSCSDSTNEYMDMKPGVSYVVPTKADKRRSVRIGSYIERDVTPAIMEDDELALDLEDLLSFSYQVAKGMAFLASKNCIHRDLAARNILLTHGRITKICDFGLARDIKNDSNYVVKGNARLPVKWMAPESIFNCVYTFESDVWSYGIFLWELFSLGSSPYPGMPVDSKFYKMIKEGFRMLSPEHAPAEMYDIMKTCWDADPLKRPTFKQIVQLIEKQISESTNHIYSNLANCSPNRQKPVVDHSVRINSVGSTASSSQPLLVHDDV
Chain of 178 full-length kinases (Homo sapiens, UniProt O75460) (O75460 19-977): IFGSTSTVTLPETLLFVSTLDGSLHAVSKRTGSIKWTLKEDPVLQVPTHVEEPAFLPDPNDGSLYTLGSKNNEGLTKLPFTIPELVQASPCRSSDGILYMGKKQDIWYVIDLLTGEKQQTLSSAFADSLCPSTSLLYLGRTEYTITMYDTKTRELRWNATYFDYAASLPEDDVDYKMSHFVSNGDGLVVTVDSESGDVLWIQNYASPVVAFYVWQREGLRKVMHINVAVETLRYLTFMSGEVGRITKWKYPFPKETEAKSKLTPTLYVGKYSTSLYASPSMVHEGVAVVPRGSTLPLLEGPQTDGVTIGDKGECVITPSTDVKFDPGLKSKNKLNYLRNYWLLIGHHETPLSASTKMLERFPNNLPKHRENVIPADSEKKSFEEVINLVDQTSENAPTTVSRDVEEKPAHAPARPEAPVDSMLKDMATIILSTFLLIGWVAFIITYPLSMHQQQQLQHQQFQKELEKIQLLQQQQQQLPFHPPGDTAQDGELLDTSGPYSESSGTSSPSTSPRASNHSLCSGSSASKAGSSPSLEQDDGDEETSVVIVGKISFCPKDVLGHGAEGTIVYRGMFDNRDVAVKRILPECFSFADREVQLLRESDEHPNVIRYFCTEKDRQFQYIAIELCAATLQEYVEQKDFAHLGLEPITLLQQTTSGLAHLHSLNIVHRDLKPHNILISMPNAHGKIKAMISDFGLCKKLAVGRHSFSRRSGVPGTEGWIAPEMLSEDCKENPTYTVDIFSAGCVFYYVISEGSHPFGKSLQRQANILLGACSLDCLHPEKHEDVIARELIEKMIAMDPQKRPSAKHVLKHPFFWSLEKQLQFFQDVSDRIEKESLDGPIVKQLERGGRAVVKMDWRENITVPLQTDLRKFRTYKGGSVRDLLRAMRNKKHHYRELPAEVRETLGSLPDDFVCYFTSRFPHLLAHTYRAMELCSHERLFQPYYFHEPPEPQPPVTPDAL
Chain of 178 full-length kinases (Homo sapiens, UniProt P31749) (P31749 whole entry): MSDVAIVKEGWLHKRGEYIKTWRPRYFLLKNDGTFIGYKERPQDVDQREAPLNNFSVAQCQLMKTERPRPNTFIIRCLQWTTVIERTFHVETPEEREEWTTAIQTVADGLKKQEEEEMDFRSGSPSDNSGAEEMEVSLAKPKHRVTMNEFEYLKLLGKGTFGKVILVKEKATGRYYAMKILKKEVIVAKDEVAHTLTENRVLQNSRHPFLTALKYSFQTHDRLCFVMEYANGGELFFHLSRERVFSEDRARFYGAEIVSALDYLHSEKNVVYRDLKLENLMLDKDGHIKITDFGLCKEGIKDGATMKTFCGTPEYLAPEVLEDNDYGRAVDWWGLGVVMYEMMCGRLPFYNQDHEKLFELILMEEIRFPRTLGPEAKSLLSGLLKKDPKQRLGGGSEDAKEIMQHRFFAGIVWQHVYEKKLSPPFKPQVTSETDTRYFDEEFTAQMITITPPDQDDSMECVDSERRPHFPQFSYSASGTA
Chain of 178 full-length kinases (Homo sapiens, UniProt Q15831) (Q15831 whole entry): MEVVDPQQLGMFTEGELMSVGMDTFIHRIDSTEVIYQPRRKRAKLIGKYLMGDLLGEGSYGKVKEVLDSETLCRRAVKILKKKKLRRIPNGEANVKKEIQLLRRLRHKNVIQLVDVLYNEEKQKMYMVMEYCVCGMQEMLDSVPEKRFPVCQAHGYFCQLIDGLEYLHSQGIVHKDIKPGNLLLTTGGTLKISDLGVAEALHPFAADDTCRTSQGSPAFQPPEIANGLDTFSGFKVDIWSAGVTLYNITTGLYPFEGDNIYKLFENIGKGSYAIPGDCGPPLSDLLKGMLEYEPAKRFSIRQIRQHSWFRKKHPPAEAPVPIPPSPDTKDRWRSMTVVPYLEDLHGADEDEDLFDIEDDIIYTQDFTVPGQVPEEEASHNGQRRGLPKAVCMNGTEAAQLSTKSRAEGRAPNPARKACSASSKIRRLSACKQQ
Chain of 178 full-length kinases (Homo sapiens, UniProt P50750) (P50750 whole entry): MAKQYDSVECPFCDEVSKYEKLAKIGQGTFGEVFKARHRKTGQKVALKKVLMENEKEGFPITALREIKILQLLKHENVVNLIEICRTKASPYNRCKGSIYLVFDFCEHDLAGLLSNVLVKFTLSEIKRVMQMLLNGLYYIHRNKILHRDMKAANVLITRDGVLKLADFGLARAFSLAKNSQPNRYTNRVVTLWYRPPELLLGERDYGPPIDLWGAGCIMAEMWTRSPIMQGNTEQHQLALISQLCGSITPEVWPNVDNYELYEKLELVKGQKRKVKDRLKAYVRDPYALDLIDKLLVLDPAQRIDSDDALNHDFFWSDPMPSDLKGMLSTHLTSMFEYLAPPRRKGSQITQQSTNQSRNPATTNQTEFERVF
Chain of 178 full-length kinases (Homo sapiens, UniProt Q13882) (Q13882 whole entry): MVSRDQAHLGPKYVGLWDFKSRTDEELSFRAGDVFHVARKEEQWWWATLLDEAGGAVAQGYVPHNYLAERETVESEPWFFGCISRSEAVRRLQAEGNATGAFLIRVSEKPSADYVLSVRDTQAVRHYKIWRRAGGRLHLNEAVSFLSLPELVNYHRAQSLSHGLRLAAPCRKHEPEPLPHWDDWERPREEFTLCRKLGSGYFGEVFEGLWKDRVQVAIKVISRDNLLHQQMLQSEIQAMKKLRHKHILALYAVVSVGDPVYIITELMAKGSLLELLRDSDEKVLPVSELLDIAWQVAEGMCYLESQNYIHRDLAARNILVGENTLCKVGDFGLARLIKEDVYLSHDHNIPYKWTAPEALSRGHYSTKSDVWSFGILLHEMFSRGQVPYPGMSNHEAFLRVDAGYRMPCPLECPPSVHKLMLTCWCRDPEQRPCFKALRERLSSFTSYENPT

C[C@@H](Oc1cc(-c2cnn(C3CCNCC3)c2)cnc1N)c1c(Cl)ccc(F)c1Cl [Crizotinib]
No Binding: Occupancy, % Replicate 1 (178 full-length kinases [1]) | Occupancy, % Replicate 2 (178 full-length kinases [1]) | Occupancy, % Replicate 1 (178 full-length kinases [2]) | Occupancy, % Replicate 1 (178 full-length kinases [3]) | Occupancy, % Replicate 2 (178 full-length kinases [4]) | Occupancy, % Replicate 2 (178 full-length kinases [5]) | Occupancy, % Replicate 1 (178 full-length kinases [6]) | Occupancy, % Replicate 2 (178 full-length kinases [6]) | Occupancy, % Replicate 1 (178 full-length kinases [7]) | Occupancy, % Replicate 1 (178 full-length kinases [8]) | Occupancy, % Replicate 2 (178 full-length kinases [8]) | Occupancy, % Replicate 1 (178 full-length kinases [9]) | Occupancy, % Replicate 2 (178 full-length kinases [9]) | Occupancy, % Replicate 1 (178 full-length kinases [10]) | Occupancy, % Replicate 2 (178 full-length kinases [10]) | Occupancy, % Replicate 2 (178 full-length kinases [11]) | Occupancy, % Replicate 1 (178 full-length kinases [12]) | Occupancy, % Replicate 2 (178 full-length kinases [13]) | Occupancy, % Replicate 2 (178 full-length kinases [14]) | Occupancy, % Replicate 1 (178 full-length kinases [15]; replicate 1) | Occupancy, % Replicate 2 (178 full-length kinases [15]; replicate 2) | Occupancy, % Replicate 2 (178 full-length kinases [16]) | Occupancy, % Replicate 2 (178 full-length kinases [17]) | Occupancy, % Replicate 1 (178 full-length kinases [18]) | Occupancy, % Replicate 1 (178 full-length kinases [19]) | Occupancy, % Replicate 2 (178 full-length kinases [19])
